This assay has as its system Lmna G609G/G609G mouse. In words: Life span of Lmna G609G/G609G progeria model mice. Type of assay: in vivo. To be noted: i.p. 20 mg/kg twice a week from 5 weeks old. The source says:
Fig. 3 In vivo favorable effect of SLC-D011. A Gross morphology of Lmna^G609G/G609G mice (10 weeks old) was ameliorated after injection with SLC-D011. At the same age, the experimental group (D011) of mice were larger than vehicle-injected control (Con) subjects regardless of gender. B, C SLC-D011 increases body weight B and extends life span C of Lmna^G609G/G609G progeria model mouse (Con: n = 8; SLC-D011: n = 8). Compared with 14.8 weeks of average (ave) life span with maximum (max) life span of 15.5 weeks, 20 mg/kg of intraperitoneal (i.p) injection (twice a week) of SLC-D011 could extend the life span upto 19 weeks (max = 21 weeks). Lmna^G609G/G609G mice were injected with SLC-D011 from age of 5-week old, *p < 0.05. D Gross morphology of SLC-D011 injected Lmna^G609G/+ mouse. […] E SLC-D011 increases body weights of Lmna^G609G/+ mice (Con: n = 10; SLC-D011: n = 11), *p < 0.05. F Favorable effect of SLC-D011 on life span of Lmna^G609G/+ mice. […] Only the axis reads Age (weeks).
Fig. 4 Oral administration of SLC-D011 suppresses premature aging features. […] H Anti-aging effects of single treatment of SLC-D011 or lonafarnib were measured in HGPS patients-derived cells (AG11513, AG03199, AG11498, and AG03198, Coriell Cell Repositories). […]

For 1 compound, Maximum life span results are on record in paper PMC7782499, “Progerinin, an optimized progerin-lamin A binding inhibitor, ameliorates premature senescence phenotypes of Hutchinson-Gilford progeria syndrome” (Communications Biology, 2021).

As for `CC1(C)Oc2cc3oc(=O)ccc3cc2C[C@@H]1OC/C=C/c1ccccc1` [SLC-D011], the Maximum life span worked out at 21 weeks.
